Target: T1, endothelial lipase (EL) (Homo sapiens, UniProt Q9Y5X9)
T1 construct: Conditioned media obtained from HT-1080 cells, which were transformed by RAGE technology (Athersys) to overexpress endogenous EL; endogenous in cells; conditioned medium used as the enzyme source
T1 sequence (Q9Y5X9 21-500): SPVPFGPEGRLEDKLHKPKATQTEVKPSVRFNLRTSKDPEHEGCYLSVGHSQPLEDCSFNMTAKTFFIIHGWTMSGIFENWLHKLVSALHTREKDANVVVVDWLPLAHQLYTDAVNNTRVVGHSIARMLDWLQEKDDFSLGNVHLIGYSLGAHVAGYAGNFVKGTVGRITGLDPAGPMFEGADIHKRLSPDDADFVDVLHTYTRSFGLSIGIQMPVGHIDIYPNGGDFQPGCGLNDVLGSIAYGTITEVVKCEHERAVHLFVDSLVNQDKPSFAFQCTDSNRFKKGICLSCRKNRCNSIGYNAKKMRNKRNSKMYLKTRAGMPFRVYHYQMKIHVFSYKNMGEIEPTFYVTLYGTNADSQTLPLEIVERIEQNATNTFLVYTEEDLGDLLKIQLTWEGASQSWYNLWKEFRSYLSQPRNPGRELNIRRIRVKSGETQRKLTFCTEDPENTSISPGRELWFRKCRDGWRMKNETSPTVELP
Assay: Endothelial lipase (EL) enzymatic assay with fluorescent substrate A10070 in DMPG vesicles
Format: biochemical
Settings: conditioned media from HT-1080 cells overexpressing endogenous EL; 20 min preincubation at 37° C.; read-out: HLE_EL_CRC IC50
Experimental: Endothelial lipase activity was measured using a fluorescent substrate, A10070, (Invitrogen, CA) doped into an artificial vesicle containing DMPG (Avanti Polar Lipids) as the excipient. Vesicles were prepared by combining 285 uL of 1 mM DMPG in a 1:1 mixture of MeOH and CHCl3 with 15 uL of 1 mM A10070 in a 1:1 mixture of MeOH and CHCl3. The mixture was dried under nitrogen and resuspended in 150 uL of 50 mM HEPES pH 8.0 buffer containing 100 mM NaCl and 0.2 mM EDTA. The sample was allowed to sit at rt for 15 min and then was sonicated 3×4 mins on ice with a Branson Sonicator using duty cycle 1. This preparation provides vesicles with a mole fraction of 0.05 for the FRET substrate.
The enzymatic assay was measured using white, opaque 96-well half area plates. Each well contained 60 uL of assay buffer (50 mM HEPES pH 8.0, 50 mM NaCl and 1 mM CaCl2) and 2 ul of a DMSO solution containing compound of interest. Conditioned media obtained from HT-1080 cells, which were transformed by RAGE technology (Athersys) to overexpress endogenous EL, was added and the reaction was allowed to incubate for 20 min at 37° C. with gentle agitation. The reaction was started by the addition of 20 uL of a 1:4 dilution of vesicles. The final total reaction volume was 100 uL. The reaction rates were measured on a Gemini plate reader with an excitation wavelength of 488 nm and a emission of 530 nm. Readings were taken every 20 seconds for 10 min with agitation between each reading. The slope of the linear portion of the readout was used to calculate the rate of the reaction.

| IC50 [µM] | SMILES |
| --- | --- |
| 1.79 | CC(C)C(CCc1ccc(Cl)c(Cl)c1)NC(=O)c1ccn(C)c(=O)c1O (single isomer, unassigned) [Example 115, N-(1-(3,4-dichlorophenyl)-4-methylpentan-3-yl)-3-hydroxy-1-methyl-2-oxo-1,2-dihydropyridine-4-carboxamide] |
| < 0.01 | Cn1c(-c2cc(F)cc(C(F)(F)F)c2)cc(C(=O)NCCCOc2ccccc2[N+](=O)[O-])c(O)c1=O [Example 81, 6-(3-fluoro-5-(trifluoromethyl)phenyl)-3-hydroxy-1-methyl-N-(3-(2-nitrophenoxy)propyl)-2-oxo-1,2-dihydropyridine-4-carboxamide] |
| 0.216 | Cn1c(-c2cc(F)cc(C(F)(F)F)c2)cc(C(=O)NCCc2cccc(C(F)(F)F)c2)c(O)c1=O [Example 56, 6-(3-fluoro-5-(trifluoromethyl)phenyl)-3-hydroxy-1-methyl-2-oxo-N-(3-(trifluoromethyl)phenethyl)-1,2-dihydropyridine-4-carboxamide] |
| 1.62 | Cn1ccc(C(=O)NC(CCc2ccc(Cl)c(Cl)c2)C2CC2)c(O)c1=O (single isomer, unassigned) [Example 119, N-(1-cyclopropyl-3-(3,4-dichlorophenyl)propyl)-3-hydroxy-1-methyl-2-oxo-1,2-dihydropyridine-4-carboxamide] |

Reference: US8933235B2, “Pyridinedione carboxamide inhibitors of endothelial lipase” (Bristol-Myers Squibb Company, priority 2011, dated 2015)
